According to the NIST ThermoML archive (doi:10.1021/je300252d):

Test: mn = molality of the nth substance listed, in mol/kg
Settings: 100 kPa, Liquid, Direct current cell with electrodes

F[B-](F)(F)F.[Na+] [sodium tetrafluoroborate] + CN(C)C=O
Settings | molar conductivity [S·m2/mol]
283.15 K, m1 = 0.0001924 | 0.006693
283.15 K, m1 = 0.0003952 | 0.0066184
283.15 K, m1 = 0.0006451 | 0.0065533
283.15 K, m1 = 0.0008265 | 0.0065141
283.15 K, m1 = 0.001295 | 0.006434
283.15 K, m1 = 0.002093 | 0.0063285
283.15 K, m1 = 0.00309 | 0.0062291
283.15 K, m1 = 0.004094 | 0.0061456
283.15 K, m1 = 0.005982 | 0.0060221
283.15 K, m1 = 0.007983 | 0.0059166
283.15 K, m1 = 0.009964 | 0.005832
283.15 K, m1 = 0.01199 | 0.0057567
288.15 K, m1 = 0.0001674 | 0.007209
288.15 K, m1 = 0.000442 | 0.007102
288.15 K, m1 = 0.000627 | 0.0070513
288.15 K, m1 = 0.0007814 | 0.0070146
288.15 K, m1 = 0.001324 | 0.0069135
288.15 K, m1 = 0.002128 | 0.0067991
288.15 K, m1 = 0.003087 | 0.0066947
288.15 K, m1 = 0.00408 | 0.0066044
288.15 K, m1 = 0.006001 | 0.0064671
288.15 K, m1 = 0.007983 | 0.0063522
288.15 K, m1 = 0.009981 | 0.0062566
288.15 K, m1 = 0.01195 | 0.0061747
293.15 K, m1 = 0.0002336 | 0.007686
293.15 K, m1 = 0.0004583 | 0.0076005
293.15 K, m1 = 0.0006194 | 0.0075538
293.15 K, m1 = 0.0008218 | 0.0075029
293.15 K, m1 = 0.001262 | 0.0074142
293.15 K, m1 = 0.001996 | 0.0072971
293.15 K, m1 = 0.003085 | 0.0071656
293.15 K, m1 = 0.004073 | 0.0070679
293.15 K, m1 = 0.005971 | 0.0069203
293.15 K, m1 = 0.007974 | 0.0067931
293.15 K, m1 = 0.009986 | 0.0066867
293.15 K, m1 = 0.01198 | 0.0065964
298.15 K, m1 = 0.0001864 | 0.008228
298.15 K, m1 = 0.0003604 | 0.008147
298.15 K, m1 = 0.0005971 | 0.0080676
298.15 K, m1 = 0.000833 | 0.0080036
298.15 K, m1 = 0.001297 | 0.0079038
298.15 K, m1 = 0.002158 | 0.0077599
298.15 K, m1 = 0.00307 | 0.0076432
298.15 K, m1 = 0.004131 | 0.0075305
298.15 K, m1 = 0.005971 | 0.0073766
298.15 K, m1 = 0.007994 | 0.0072373
298.15 K, m1 = 0.009949 | 0.0071242
298.15 K, m1 = 0.01197 | 0.0070255
303.15 K, m1 = 0.0001663 | 0.008767
303.15 K, m1 = 0.0003918 | 0.008654
303.15 K, m1 = 0.0005861 | 0.0085855
303.15 K, m1 = 0.0007746 | 0.008529
303.15 K, m1 = 0.001279 | 0.0084093
303.15 K, m1 = 0.002088 | 0.0082612
303.15 K, m1 = 0.003044 | 0.0081277
303.15 K, m1 = 0.004105 | 0.0080061
303.15 K, m1 = 0.005964 | 0.0078384
303.15 K, m1 = 0.007948 | 0.0076906
303.15 K, m1 = 0.01001 | 0.0075615
303.15 K, m1 = 0.01198 | 0.0074596
308.15 K, m1 = 0.0001761 | 0.009295
308.15 K, m1 = 0.0003871 | 0.009183
308.15 K, m1 = 0.0005655 | 0.0091142
308.15 K, m1 = 0.0008095 | 0.0090359
308.15 K, m1 = 0.001266 | 0.0089201
308.15 K, m1 = 0.002043 | 0.0087655
308.15 K, m1 = 0.003019 | 0.0086178
308.15 K, m1 = 0.004064 | 0.0084888
308.15 K, m1 = 0.005984 | 0.0083031
308.15 K, m1 = 0.007986 | 0.0081431
308.15 K, m1 = 0.01001 | 0.0080069
308.15 K, m1 = 0.01196 | 0.0079009
313.15 K, m1 = 0.0001113 | 0.009888
313.15 K, m1 = 0.0003812 | 0.00972
313.15 K, m1 = 0.0006135 | 0.0096252
313.15 K, m1 = 0.000783 | 0.0095672
313.15 K, m1 = 0.001297 | 0.0094265
313.15 K, m1 = 0.002162 | 0.0092463
313.15 K, m1 = 0.003051 | 0.0091053
313.15 K, m1 = 0.004099 | 0.0089684
313.15 K, m1 = 0.005996 | 0.0087733
313.15 K, m1 = 0.008013 | 0.0086011
313.15 K, m1 = 0.01004 | 0.0084556
313.15 K, m1 = 0.01199 | 0.0083454
318.15 K, m1 = 0.0001596 | 0.0104
318.15 K, m1 = 0.0004215 | 0.01024
318.15 K, m1 = 0.0005697 | 0.010177
318.15 K, m1 = 0.0008753 | 0.010067
318.15 K, m1 = 0.001339 | 0.009935
318.15 K, m1 = 0.002012 | 0.0097823
318.15 K, m1 = 0.003095 | 0.009596
318.15 K, m1 = 0.004095 | 0.0094578
318.15 K, m1 = 0.005994 | 0.0092497
318.15 K, m1 = 0.008014 | 0.0090658
318.15 K, m1 = 0.009953 | 0.0089174
318.15 K, m1 = 0.01195 | 0.0087989
